Test results: PMC10915168, “DJ-1 protects proteins from acylation by catalyzing the hydrolysis of highly reactive cyclic 3-phosphoglyceric anhydride” (Nature Communications, 2024)

Target: T1, DJ-1 (Homo sapiens, UniProt Q99497, C106S)
T1 construct: gene PARK7; full-length, N-terminal His-tag removed by TEV protease; Ni-NTA purified recombinant; ~20 kDa
T1 sequence (Q99497 1-189 C106S): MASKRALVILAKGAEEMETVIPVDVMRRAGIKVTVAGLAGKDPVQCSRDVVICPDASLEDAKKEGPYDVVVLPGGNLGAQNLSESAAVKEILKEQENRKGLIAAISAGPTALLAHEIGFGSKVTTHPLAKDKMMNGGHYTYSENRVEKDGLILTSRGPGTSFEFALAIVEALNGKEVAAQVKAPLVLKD
Assay: end-point NAC assay of remaining cPGA; 1H-NMR
Type: biochemical
Conditions: 500 µM cPGA, 2 min, 50 mM sodium phosphate pH 7.0, 25 °C; catalytic cysteine mutant

O=C1OP(=O)(O)OC[C@H]1O [cPGA]
end-point NAC assay of remaining cPGA; 1H-NMR: Mutation of the catalytic cysteine (C106S) in DJ-1 completely abolished this activity
